The text below walks through data of US10941157B2, “Pesticidal compositions and uses thereof” (Gilead Apollo, LLC, priority 2015, dated 2021).

≈ marks a conversion by molar mass, not a printed value. A value given as a limit tells only on which side of the number the result lay.

What all share (assay type): cell-based
One assay concerns Rhizoctonia solani (Rs). Description: In vitro pathogen growth inhibition assay, Rs (mycelial plugs). Particulars: Rhizoctonia solani, 48 h, ≥90% inhibition; mycelial plugs; 48 hours vs 2% DMSO control; read-out: Compound Concentration (ppm) sufficient for ≥90% inhibition of growth, Rs. As to the method:
(§1) A growth inhibition assay was conducted to determine the ability of compounds to control the growth of fungal pathogens, such as Botrtyis cinerea (Bc), Collectotrichum graminicola (Cg), Diplodia maydis (Dm), Fusarium moniliforme (Fm), Fusarium virguliforme (Fv), Phytophthora capsici (Pc), Rhizoctonia solani (Rs), and Septoria tritici (St). The compounds listed in Table 1 were each dissolved in DMSO at 2.5 mg/ml to produce compound stock solutions (“stocks”). […] Negative controls on each plate included 2% DMSO, water, and a blank (media+2% DMSO). Fungal spores were isolated from previously sub-cultured plates of Botrtyis cinerea (Bc), Collectotrichum graminicola (Cg), Diplodia maydis (Dm), Fusarium moniliforme (Fm), Fusarium virguliforme (Fv), Phytophthora capsici (Pc), and Septoria tritici (St). The isolated spores were diluted to individual concentrations with a 17% V8 liquid media. For Rhizoctonia solani (Rs), 1.5 mm mycelial plugs were used in place of spores and ¼ Potato Dextrose Broth (PDB) was used for dilution. The spore concentrations and plug sizes were based on growth curves generated at 48 hours for each pathogen. In a second 96-well plate, the spores or mycelial plugs, media, diluted compound solutions, and controls were combined. Once the compound was added, a true final concentration of compound in each well was measured by an OD600 reading, which adjusted for any compound precipitation that might have occurred in the well. Plate readings were repeated at both 24 and 48 hours. The blank negative control was used as a background subtraction. Additional visual ratings were performed at both 24 and 48 hours for checking on precipitation and confirming efficacy. […] Both tables list the concentration of each compound that was sufficient to ≥90% inhibition of growth for each of the fungal pathogens listed above. In addition, some of compounds were tested in a yeast growth inhibition assay for Saccharomyces cerevisiae (Sc). Table 2 lists the concentration of the tested compound that was sufficient to ≥75% inhibition of Saccharomyces cerevisiae (Sc).

In assay [1] the test system is Collectotrichum graminicola (Cg). Description: In vitro pathogen growth inhibition assay, Cg. The following applies: 48 h, ≥90% inhibition; 48 hours vs 2% DMSO control; read-out: Compound Concentration (ppm) sufficient for ≥90% inhibition of growth, Cg. As to the method:
as §1

The subject of a further assay is Botrtyis cinerea (Bc). Description: In vitro pathogen growth inhibition assay, Bc. The following applies: 48 h, ≥90% inhibition; 48 hours vs 2% DMSO control; read-out: Compound Concentration (ppm) sufficient for ≥90% inhibition of growth, Bc. As to the method:
as §1

In assay [2] the test system is Fusarium moniliforme (Fm). Description: In vitro pathogen growth inhibition assay, Fm. Particulars: Fusarium verticillioides; ≥90% inhibition; 48 hours vs 2% DMSO control; read-out: Compound Concentration (ppm) sufficient for ≥90% inhibition of growth, Fm. As to the method: as §1
Another assay has as its system Diplodia maydis (Dm). Description: In vitro pathogen growth inhibition assay, Dm. The following applies: Stenocarpella maydis, 48 h, ≥90% inhibition; 48 hours vs 2% DMSO control; read-out: Compound Concentration (ppm) sufficient for ≥90% inhibition of growth, Dm. As to the method:
as §1

Assay [3] relates to Phytophthora capsici (Pc). Description: In vitro pathogen growth inhibition assay, Pc. Particulars: 48 h, ≥90% inhibition, 48 hours vs 2% DMSO control, read-out: Compound Concentration (ppm) sufficient for ≥90% inhibition of growth, Pc. As to the method: as §1
The next assay concerns Septoria tritici (St). Description: In vitro pathogen growth inhibition assay, St. The following applies: Zymoseptoria tritici, 48 h, ≥90% inhibition; 48 hours vs 2% DMSO control; read-out: Compound Concentration (ppm) sufficient for ≥90% inhibition of growth, St. As to the method: as §1
For assay [4], the system named is Fusarium virguliforme (Fv). Description: In vitro pathogen growth inhibition assay, Fv. Particulars: ≥90% inhibition, 48 hours vs 2% DMSO control, read-out: Compound Concentration (ppm) sufficient for ≥90% inhibition of growth, Fv. As to the method:
as §1

Take `COc1ccccc1[C@H](Cn1c(=O)n(C(C)(C)C(N)=O)c(=O)c2c(C)c(-n3nccn3)sc21)OC1CCOCC1` [Compound I-031]: the IC90 in the assay on Rhizoctonia solani (Rs) was 10 µg/mL (≈ 17.6 µM); in assay [1], 10 µg/mL (≈ 17.6 µM); in the assay with Botrtyis cinerea (Bc), 2 µg/mL (≈ 3.52 µM); in assay [2], 0.08 µg/mL (≈ 0.141 µM); in the assay on Diplodia maydis (Dm), 10 µg/mL (≈ 17.6 µM); in assay [3] it was more than 50 µg/mL. Also, the IC90 with Septoria tritici (St) is more than 50 µg/mL; in assay [4], 10 µg/mL (≈ 17.6 µM).
Take `CCNC(=O)C(C)(C)n1c(=O)c2c(C)c(-n3nccn3)sc2n(C[C@H](OC2CCOCC2)c2ccccc2OC)c1=O` [Compound I-032]: the IC90 is 10 µg/mL (≈ 16.8 µM) in the assay on Rhizoctonia solani (Rs); not below 2 µg/mL in assay [1]; 0.4 µg/mL (≈ 0.67 µM) in the assay with Botrtyis cinerea (Bc); 0.08 µg/mL (≈ 0.134 µM) in assay [2]; 10 µg/mL (≈ 16.8 µM) in the assay on Diplodia maydis (Dm); more than 50 µg/mL in assay [3]. In addition, the IC90 is more than 50 µg/mL in the assay on Septoria tritici (St) and 10 µg/mL (≈ 16.8 µM) in assay [4].
`COc1ccccc1[C@H](Cn1c(=O)n(C(C)(C)C(=O)N2CCCCC2)c(=O)c2c(C)c(-n3nccn3)sc21)OC1CCOCC1` [Compound I-033]: the IC90 was 0.08 µg/mL (≈ 0.126 µM) in the assay on Rhizoctonia solani (Rs); not below 0.4 µg/mL in assay [1]; 0.4 µg/mL (≈ 0.628 µM) in the assay with Botrtyis cinerea (Bc); 0.08 µg/mL (≈ 0.126 µM) in assay [2]; not below 0.4 µg/mL with Diplodia maydis (Dm); more than 50 µg/mL in assay [3]. Also, the IC90 with Septoria tritici (St) was more than 10 µg/mL; in assay [4], 0.4 µg/mL (≈ 0.628 µM).
As to `COc1ccc(F)cc1[C@H](Cn1c(=O)n(C(C)(C)C(=O)N2CCCCC2)c(=O)c2c(C)c(-n3nccn3)sc21)OC1CCOCC1` [Compound I-036], the IC90 was 0.08 µg/mL (≈ 0.122 µM) in the assay with Rhizoctonia solani (Rs); 0.08 µg/mL (≈ 0.122 µM) in assay [1]; 0.4 µg/mL (≈ 0.611 µM) in the assay on Botrtyis cinerea (Bc); 0.08 µg/mL (≈ 0.122 µM) in assay [2]; not below 0.08 µg/mL in the assay on Diplodia maydis (Dm); more than 50 µg/mL in assay [3]. In addition, the IC90 was not below 2 µg/mL in the assay on Septoria tritici (St) and 0.4 µg/mL (≈ 0.611 µM) in assay [4].
Consider `COc1ccc(F)cc1[C@H](Cn1c(=O)n(C(C)(C)C(=O)N2CCCC2)c(=O)c2c(C)c(-n3nccn3)sc21)OC1CCOCC1` [Compound I-037], for which the IC90 in the assay with Rhizoctonia solani (Rs) was 0.08 µg/mL (≈ 0.125 µM); in assay [1] it was not below 0.08 µg/mL; in the assay with Botrtyis cinerea (Bc) it was not below 0.4 µg/mL; in assay [2] it was 0.08 µg/mL (≈ 0.125 µM); with Diplodia maydis (Dm) it was not below 0.08 µg/mL; in assay [3] it was 10 µg/mL (≈ 15.6 µM). The IC90 in the assay with Septoria tritici (St) is not below 2 µg/mL; in assay [4], 0.4 µg/mL (≈ 0.624 µM).
As for `COc1ccc(F)cc1[C@H](Cn1c(=O)n(C(C)(C)C(=O)NC2CCC2)c(=O)c2c(C)c(-n3nccn3)sc21)OC1CCOCC1` [Compound I-038], the IC90 with Rhizoctonia solani (Rs) stood at 0.08 µg/mL (≈ 0.125 µM); in assay [1], 0.4 µg/mL (≈ 0.624 µM); in the assay with Botrtyis cinerea (Bc), 0.4 µg/mL (≈ 0.624 µM); in assay [2] it was 0.08 µg/mL (≈ 0.125 µM); in the assay with Diplodia maydis (Dm), 0.4 µg/mL (≈ 0.624 µM); in assay [3] it was 10 µg/mL (≈ 15.6 µM). The values for the IC90 (in the assay with Septoria tritici (St); in assay [4]) were not below 2 µg/mL and 0.4 µg/mL (≈ 0.624 µM), respectively.
Consider `COc1ccc(F)cc1[C@H](Cn1c(=O)n(C(C)(C)C(=O)NC2CCCCC2)c(=O)c2c(C)c(-n3nccn3)sc21)OC1CCOCC1` [Compound I-039], for which the IC90 was 0.4 µg/mL (≈ 0.598 µM) in the assay with Rhizoctonia solani (Rs); 2 µg/mL (≈ 2.99 µM) in assay [1]; 0.4 µg/mL (≈ 0.598 µM) with Botrtyis cinerea (Bc); 0.08 µg/mL (≈ 0.12 µM) in assay [2]; 0.4 µg/mL (≈ 0.598 µM) with Diplodia maydis (Dm); more than 50 µg/mL in assay [3]. In addition, the IC90 with Septoria tritici (St) was not below 2 µg/mL; in assay [4], 0.4 µg/mL (≈ 0.598 µM).
For the molecule `COc1ccc(F)cc1[C@H](Cn1c(=O)n(C(C)(C)C(=O)NCC(C)C)c(=O)c2c(C)c(-n3nccn3)sc21)OC1CCOCC1` [Compound I-040], the IC90 in the assay on Rhizoctonia solani (Rs) is 2 µg/mL (≈ 3.11 µM); in assay [1], not below 0.4 µg/mL; with Botrtyis cinerea (Bc), 0.4 µg/mL (≈ 0.622 µM); in assay [2], 0.08 µg/mL (≈ 0.124 µM); in the assay with Diplodia maydis (Dm) it was not below 0.4 µg/mL; in assay [3] it was more than 50 µg/mL. Moreover, the results for the IC90 (in the assay with Septoria tritici (St); in assay [4]) were not below 10 µg/mL and 0.4 µg/mL (≈ 0.622 µM), respectively.
For `COc1ccccc1[C@H](Cn1c(=O)n(C(C)(C)C(=O)NCC(C)C)c(=O)c2c(C)c(-n3nccn3)sc21)OC1CCOCC1` [Compound I-041], the IC90 with Rhizoctonia solani (Rs) was 0.08 µg/mL (≈ 0.128 µM); in assay [1] it was 2 µg/mL (≈ 3.2 µM); with Botrtyis cinerea (Bc), 0.4 µg/mL (≈ 0.64 µM); in assay [2], 0.08 µg/mL (≈ 0.128 µM); in the assay with Diplodia maydis (Dm), not below 2 µg/mL; in assay [3] it was more than 50 µg/mL. For the same molecule, the values for the IC90 (in the assay on Septoria tritici (St); in assay [4]) were more than 10 µg/mL and 2 µg/mL (≈ 3.2 µM), respectively.
